In publication PMC11434613, “The Remarkable and Selective In Vitro Cytotoxicity of Synthesized Bola-Amphiphilic Nanovesicles on Etoposide-Sensitive and -Resistant Neuroblastoma Cells” (Nanomaterials, 2024):
“And” between values parts separate entries of the source, which are not always exact repeats. Identical values can stand only once. Like-named read-outs stand apart in the source and are kept apart here.

Experiments:
[1] = tested on: Human MRC-5 lung fibroblast cells; assay: Presto Blue viability test on MRC-5 lung fibroblasts; format: cell-based; conditions: for IC50: concentration range 0.5–5 µM
Method: (§1) Human MRC-5 lung fibroblast cells were used (ICLC-IRCCS San Martino, Genoa, Italy); cells were expanded in DMEM/F12 50%/50% (Dulbecco’s Modified Eagle Medium/Ham’s F12 50/50 Mix; Corning, Pisa, Italy; cat. n. 10-090-CV; ThermoFisher Scientific, Segrate (MI), Italy, supplemented with 10% fetal bovine serum (GIBCO-Invitrogen, GIBCO-ThermoFisher Life Science, Segrate, Italy, catalog number (cat. n.) 10270-098) and 2 mM glutamine (Euro-Clone; Pero, MI, Italy; cat. n. EC B3000D) at 37 °C under 5% CO2 aeration. After expansion, cells were washed three times with sterile phosphate buffered solution (PBS; VWR, Milano, Italy, cat. n. 392-0442), detached with 0.25% Trypsin solution (Corning; cat-25-050-CI), collected in complete medium, and centrifuged at 400× g for 12 min. The supernatant was discarded, and cells were suspended in PBS, counted, and centrifuged again as mentioned above. Cells were then resuspended in complete medium, seeded into 24-well plates (20,000 cells/well) and allowed to adhere to the plate for the next 24 h. Subsequently, non-adherent cells and the plating medium were discarded, and fresh standard medium or treatment medium were added. Treatment media contained BPPB at different concentrations (0.5, 1.0, 5.0, 25.0, 50.0, 75.0 and 100.0 μM); triplicate wells for each concentration were tested simultaneously, as well as controls. The medium was changed every day. Cells were photographed and assayed for viability prior to treatment (time 0; T0) and after 24, 48, and 72 h subsequently (T24, T48 and T72). Bright field images of each well/treatment were acquired using a Nikon Digital Sigh DS-5Mc camera (Nikon Europe B.V., Amstelveen, The Netherlands) mounted on an inverted Olympus CKX-41 microscope (Evident Europe GmbH, Segrate (Milan), Italy) (4×, 10× and 20× enlargements).
(§2) Briefly, at the indicated time points, cells were washed twice with PBS and incubated in the dark a 37 °C for 4 h with fresh complete medium supplemented with 10% Presto Blue ^TM. Aliquots of the Presto Blue ^TM-containing medium were incubated in the same conditions, to be used as reaction blanks. Supernatants and blanks were then collected and analyzed using a Spectra MR multi-plate reader spectrophotometer (Dynex Technologies; Chantilly, VA, USA) at 570 and 600 nm. The results were calculated as the average of treatment replicas (triplicates) ± S.D., normalizing each 570 nm reading to its corresponding value at 600 nm, subtracting the average blank value, and normalizing the results at each time point to the initial reading at T0.

[2] = as above; format: cell-based, human; conditions: human
Method: as §1, §2

red blood cells (RBCs) = assay: In vitro hemolytic toxicity on red blood cells; format: cell-based, human; conditions: for Hemolysis (hemolytic ratio): 60 min; for IC50: 60 min at 37 °C, 0.1–50 µM, blood of four healthy donors, read-out: IC50 RBCs (concentration needed to cause 50% hemolysis)
Method: (§3) The hemolytic ratio was evaluated, as recently reported with slight changes, in EDTA-blood samples from four healthy donors from the San Martino Hospital Transfusion Centre. Specifically, red blood cells (RBCs) were isolated by diluting 0.2 mL of blood with 0.4 mL of phosphate-buffered saline (PBS) and centrifuging it for 5 min at 10,000× g. The pellet, consisting of RBCs, was washed 5 times with 1.0 mL PBS and finally resuspended with 2.0 mL PBS. The assay was carried out on 0.1 mL of resuspended RBCs added to 0.1 mL of H2O (positive control), 0.1 mL of PBS (negative control), or 0.1 mL of the different concentrations (0.1–50 µM) of the compound to be tested (BPPB). The samples were incubated for 60 min at 37 °C, and at the end, they were centrifuged for 5 min at 10,000× g. Finally, 0.1 mL of supernatant was transferred to a transparent 96-well plate and measured by a spectrophotometer (Dynex Technologies; Chantilly, VA, U.S.A.) at 595 nm. The hemolytic ratio was calculated using the following formula:Hemolytic ratio (%) = (OD TEST − OD NEGATIVE CONTROL)/(OD POSITIVE CONTROL − OD NEGATIVE CONTROL) × 100
(§4) The hemolytic ratio percentage (%) caused by BPPB was assessed as recently reported with slight changes. In particular, EDTA-blood samples from four healthy donors were exposed to increasing concentrations of BPPB (0.1–50 µM).

[3] = In vitro hemolytic toxicity on red blood cells; format: cell-based, human; conditions: human
Method: as §3, §4

HepG2 cells = tested on: HepG2 cells; parameters: method as in earlier work; conditions: MTT test; Table S1, previously assessed characteristics; cited from earlier work

c1ccc([P+](CCCCCCCCCCCC[P+](c2ccccc2)(c2ccccc2)c2ccccc2)(c2ccccc2)c2ccccc2)cc1 [BPPB, 1,1-(1,12-dodecanediyl)bis [1,1, 1]-triphenylphosphonium di-bromide]
Selectivity index (SI) = IC50 MRC-5 / IC50 HTLA-230 ([1]; 24 h): 11.68 | Selectivity index (SI) = IC50 MRC-5 / IC50 HTLA-ER ([1]; 24 h): 2.49 | IC50 ([1]; 24 h exposure): 2.77 µM | Selectivity index (SI) = IC50 MRC-5 / IC50 HTLA-230 ([1]; 48 h): 3.77 | Selectivity index (SI) = IC50 MRC-5 / IC50 HTLA-ER ([1]; 48 h): 0.80 | Selectivity index (SI) = IC50 MRC-5 / IC50 HTLA-230 ([1]; 72 h): 4.01 and 4.07 | Selectivity index (SI) = IC50 MRC-5 / IC50 HTLA-ER ([1]; 72 h): 1.11 | Fold higher SI for HTLA-ER than that of ETO ([1]; BPPB SI vs MRC-5, 24 h (2.49) against ETO SI (0.32)): 7.8 fold | IC50 ([1]; Homo sapiens, MRC5, 24 h, 24 h exposure): 2.8 µM | IC50 ([1]; Homo sapiens, MRC5, 48 h, 48 h exposure): 0.74 ± 0.572 µM | IC50 ([1]; Homo sapiens, MRC5, 72 h, 72 h exposure): 0.928 ± 0.896 µM | Effect on plated MRC-5 cells ([1]; any concentration equal to or higher than 25 µM, within 24 h): detachment and death of all plated cells | selectivity ratio at 24 h ([2]; 24 h, read-out: Selectivity index (SI) = IC50 MRC-5 / IC50 HTLA-ER): 2.5 | selectivity ratio at 48 h ([2]; 48 h, read-out: Selectivity index (SI) = IC50 MRC-5 / IC50 HTLA-ER): ~1 | selectivity ratio at 72 h ([2]; 72 h, read-out: Selectivity index (SI) = IC50 MRC-5 / IC50 HTLA-ER): ~1 | viability at 48 h, 1 µM ([2]; MRC-5 lung fibroblast cells, 1.0 µM, 48 h, read-out: Percentage of viable MRC-5 cells with respect to seeded cells at T0): 26.8% | viability at 72 h, 1 µM ([2]; MRC-5 lung fibroblast cells, 1.0 µM, 72 h, read-out: Percentage of viable MRC-5 cells with respect to seeded cells at T0): 30.6% | viability at 5 µM ([2]; MRC-5 lung fibroblast cells, 5 µM, 48–72 h, read-out: Cell viability MRC-5): 3% | viability at 24 h, 5 µM ([2]; MRC-5 lung fibroblast cells, 5 µM, 24 h, read-out: Cell viability MRC-5): 38% | viability at 48 h, 5 µM ([2]; MRC-5 lung fibroblast cells, 5.0 µM, 48 h, read-out: Percentage of viable MRC-5 cells with respect to seeded cells at T0): 2.78% | viability at 72 h, 5 µM ([2]; MRC-5 lung fibroblast cells, 5.0 µM, 72 h, read-out: Percentage of viable MRC-5 cells with respect to seeded cells at T0): 3.04% | Hemolysis (hemolytic ratio) (red blood cells (RBCs); 10 µM): 25.1% | Hemolysis (hemolytic ratio) (red blood cells (RBCs); 20 µM): 50.8% | IC50 (red blood cells (RBCs)): 14.9 µM | IC50 (red blood cells (RBCs); Homo sapiens, Erythrocyte, 1 h): 14.9 µM | Selectivity index (SI) = IC50 RBCs / IC50 HTLA-230 (red blood cells (RBCs); NB cells 24 h exposure): > 74 | Selectivity index (SI) = IC50 RBCs / IC50 HTLA-ER (red blood cells (RBCs); NB cells 24 h exposure): 13.56 | selectivity ratio at 60 min ([3]; NB cells 24 h exposure, read-out: Selectivity index (SI) = IC50 RBCs / IC50 HTLA-ER): > 10 | viability at 60 min ([3]; isolated red blood cells, concentration at which both NB cell populations were fully exterminated, read-out: RBC viability): 98.4% | IC50 HepG2 cell (HepG2 cells): 11.31 ± 1.54 µg/mL
